From US20130210852A1, “METHODS FOR TREATING INFECTION” (priority 2010, published 2013)
Converted amounts (≈) assume the structure as drawn.

Tests used:
[1] = test system: EAEC adherence with dialyzed conditioned medium of HEp-2 cells; assay: Effect of dialyzed HEp-2 supernatants on EAEC adherence; type: cell-based, human; design: dose or concentration left out as unconfirmed; conditions: HEp-2 treated 24 h, supernatant dialyzed; chambers with or without HEp-2 cells, 3 h
Description: HEp-2 cells were cultured in T-175 flasks as described above. […] After 24 h, the medium was collected, loaded into regenerated cellulose dialysis tubing (cutoff, 6 to 8 kDa; Spectra/Por, Rancho Domiguez, Calif.), and dialyzed against 4 liters of PBS changed four times. Each dialysis step lasted at least 6 h and was carried out at 4° C. Dialyzed supernatants were either used immediately in adherence assays or stored at −20° C. until use.
The effect of supernatants on EAEC adherence was determined by mixing EAEC with the dialyzed media from the different antibiotic (or control) treatment groups and adding the bacteria to HEp-2 cells cultured in chambered slides or to chambered slides with no HEp-2 cells. Adherence was visualized microscopically as described above.

C difficile = assay: Susceptibility testing of C difficile isolates (rifaximin agar dilution, rifampin E strips)
HEp-2 cells = assay: Cytokine arrays of HEp-2 supernatants (Panomics); conditions: antibiotic 64 μg/ml, 24 h
[2] = test system: EAEC strain O42 adherence to HEp-2 cells; assay: HEp-2 cell attachment assay (microscopy after Wright-Giemsa staining); type: cell-based, human

## CO[C@H]1/C=C/O[C@@]2(C)Oc3c(C)c(O)c4c(O)c(c(/C=N/N5CCN(C)CC5)c(O)c4c3C2=O)NC(=O)/C(C)=C\C=C\[C@H](C)[C@H](O)[C@@H](C)[C@@H](O)[C@@H](C)[C@H](OC(C)=O)[C@@H]1C [Rifampin]
[1]
  EAEC adherence after mixing with dialyzed supernatants of antibiotic-treated HEp-2 cells: adhered to chambers independently of the presence of HEp-2 cells
C difficile; 359 isolates
  MIC50 against C difficile: <2 ng/mL
  MIC90 against C difficile: 4000 ng/mL (≈ 4860 nM)
C difficile; 359 isolates, listed as rifampin
  MIC50 against C difficile: < 2 ng/mL
C difficile; genotype A +, B +, BT +, tcdC-del +
  Isolates resistant to rifampin (n = 28), (%): (7) %
C difficile; genotype A +, B +, BT +, tcdC-del −
  Isolates resistant to rifampin (n = 28), (%): (14) %
C difficile; genotype A +, B +, BT −, tcdC-del +
  Isolates resistant to rifampin (n = 28), (%): (18) %
C difficile; genotype A +, B +, BT −, tcdC-del −
  Isolates resistant to rifampin (n = 28), (%): (46) %
C difficile; genotype A −, B −, BT −, tcdC-del −
  Isolates resistant to rifampin (n = 28), (%): (14) %
HEp-2 cells
  cytokine profile of HEp-2 supernatants: had the same profile, except that MIP5 was not detected
[2]
  EAEC O42 adherence to HEp-2 cells (microscopy): adhered in the traditional stacked-brick formation
